Experimental data published in patent US10681909B2, “Herbicidal triazoles” (FMC Corporation, priority 2014, dated 2020).

Assays:
panicum, fall = test: Test E preemergence; assay type: in vivo, Panicum dichotomiflorum; conditions: scale 0 to 100
Excerpt: (§1) Seeds of plant species selected from corn (Zea mays), soybean (Glycine max), lambsquarters (Chenopodium album), poinsettia, wild (wild poinsettia, Euphorbia heterophylla), pigweed, palmer (palmer pigweed, Amaranthus palmeri), waterhemp (common waterhemp, Amaranthus rudis), surinam grass (Brachiaria decumbens), crabgrass, large (large crabgrass, Digitaria sanguinalis), crabgrass, Brazilian (Brazilian crabgrass, Digitaria horizontalis), panicum, fall (fall panicum, Panicum dichotomiflorum), foxtail, giant (giant foxtail, Setaria faberii), foxtail, green (green foxtail, Setaria viridis), goosegrass (Eleusine indica), johnsongrass (Sorghum halepense), ragweed (common ragweed, Ambrosia elatior), barnyardgrass (Echinochloa crus-galli), sandbur (southern sandbur, Cenchrus echinatus), arrowleaf sida (Sida rhombifolia), ryegrass, Italian (Italian ryegrass, Lolium multiflorum), dayflower, VA (Virginia dayflower, Commelina virginica), field bindweed (Convolvulus arvensis), cocklebur (common cocklebur, Xanthium strumarium), morningglory (Ipomoea coccinea), nightshade (eastern black nightshade, Solanum ptycanthum), kochia (Kochia scoparia), nutsedge, yellow (yellow nutsedge, Cyperus esculentus), smartweed (ladysthumb smartweed, Polygonum persicaria), velvetleaf (Abutilon theophrasti), horseweed (Conyza canadensis), and beggarticks (hairy beggarticks, Bidens pilosa), were planted into a silt loam soil and treated preemergence with test chemicals formulated in a non-phytotoxic solvent mixture which included a surfactant.
(§2) At the same time, plants from these crop and weed species and also waterhemp_RES1, (ALS & Triazine resistant common waterhemp, Amaranthus rudis), and waterhemp_RES2, (ALS & HPPD resistant common waterhemp, Amaranthus rudis) were planted in pots containing Sunshine Redi-Earth® planting medium comprising spaghnum peat moss, vermiculite, starter nutrients and dolomitic limestone were treated with postemergence applications of test chemicals formulated in the same manner. Plants ranged in height from 2 to 18 cm for postemergence treatments (1- to 4-leaf stage). Treated plants and controls were maintained in a greenhouse for 14 to 21 d, after which time all species were compared to controls and visually evaluated. Plant response ratings, summarized in Table E, are based on a scale of 0 to 100 where 0 is no effect and 100 is complete control. A dash (-) response means no test result.

kochia [1] = test: Test A preemergence; assay type: in vivo, Kochia scoparia; conditions: 0 to 100 scale (0 no effect, 100 complete control)
Method in brief: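 Seeds sown in loam soil–sand blend received a directed preemergence soil spray of test chemical in non-phytotoxic solvent with surfactant; postemergence plants, 2 to 10 cm at one- to two-leaf stage, were sprayed with the same formulation. Injury visually rated versus untreated controls after ~10 d in greenhouse, 0–100 scale.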

ryegrass, Ital. = test: Test D postemergence; assay type: in vivo, Lolium multiflorum; conditions: scale 0 to 100
Excerpt: Seeds of plant species selected from bluegrass (annual bluegrass, Poa annua), blackgrass (Alopecurus myosuroides), canarygrass (Phalaris minor), chickweed (common chickweed, Stellaria media), galium (catchweed bedstraw, Galium aparine), bromegrass, down (downy bromegrass, Bromus tectorum), Russian thistle (Salsola kali), field poppy (Papaver rhoeas), field violet (Viola arvensis), foxtail, green (green foxtail, Setaria viridis), deadnettle (henbit deadnettle, Lamium amplexicaule), ryegrass, Ital. (Italian ryegrass, Lolium multiflorum), kochia (Kochia scoparia), lambsquarters (Chenopodium album), oilseed rape (Brassica napus), pigweed (Amaranthus retroflexus), chamomile (scentless chamomile, Matricaria inodora), speedwell (bird's-eye speedwell, Veronica persica), barley, spring (spring barley, Hordeum vulgare), wheat, spring (spring wheat, Triticum aestivum), buckwheat, wild (wild buckwheat, Polygonum convolvulus), wild mustard (Sinapis arvensis), oat, wild (wild oat, Avena fatua), radish, wild (wild radish, Raphanus raphanistrum), […]), barley, winter (winter barley, Hordeum vulgare), and wheat, winter (winter wheat, Triticum aestivum) were planted into a silt loam soil and treated preemergence with test chemicals formulated in a non-phytotoxic solvent mixture which included a surfactant. At the same time, these species were planted in pots containing Sunshine Redi-Earth® planting medium comprising spaghnum peat moss, vermiculite, starter nutrients and dolomitic limestone and treated with postemergence applications of the test chemicals formulated in the same manner. Plants ranged in height from 2 to 18 cm (1- to 4-leaf stage). Treated plants and controls were maintained in a controlled growth environment for 14 to 21 d after which time all species were compared to controls and visually evaluated. […] A dash (-) response means no test result.

ragweed = test: Test E postemergence; assay type: in vivo, Ambrosia elatior; conditions: scale 0 to 100
Excerpt: as §1, §2

beggarticks = test: Test E preemergence; assay type: in vivo, Bidens pilosa; conditions: scale 0 to 100
Excerpt: as §1, §2

kochia [2] = test: Test E preemergence; assay type: in vivo, Kochia scoparia; conditions: scale 0 to 100
Excerpt: as §1, §2

morningglory = test: Test A preemergence; assay type: in vivo, Ipomoea spp.; conditions: Ipomoea, pre-emergence, 240 h, 0 to 100 scale (0 no effect, 100 complete control), read-out: Plant response rating, Morningglory
Method in brief: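 Test chemicals in a non-phytotoxic solvent with surfactant were applied as a directed soil spray preemergence to seeds sown in loam/sand. Postemergence sprays went to plants 2–10 cm tall at the one- to two-leaf stage. A dash means no result.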

Fc1ccc(-c2nc(OCC(F)(F)F)n(Cc3ccnc(C(F)(F)F)c3)n2)cc1 [Compound 30]
Plant response rating (panicum, fall; 31 g ai/ha): 100
Plant response rating (panicum, fall; 62 g ai/ha): 98
Plant response rating (panicum, fall; 125 g ai/ha): 100
Plant response rating (panicum, fall; 250 g ai/ha): 100
Plant response rating, Kochia (kochia [1]; 125 g ai/ha): 100
Plant response rating, Kochia (kochia [1]; 500 g ai/ha, approx. 10 d): 100
Plant response rating: Ryegrass, Ital. (ryegrass, Ital.; 16 g ai/ha): 35
Plant response rating: Ryegrass, Ital. (ryegrass, Ital.; 31 g ai/ha): 60
Plant response rating: Ryegrass, Ital. (ryegrass, Ital.; 62 g ai/ha): 65
Plant response rating: Ryegrass, Ital. (ryegrass, Ital.; 125 g ai/ha): 70
Plant response rating (ragweed; 31 g ai/ha): 65
Plant response rating (ragweed; 62 g ai/ha): 70
Plant response rating (ragweed; 125 g ai/ha): 75
Plant response rating (ragweed; 250 g ai/ha): 80
Plant response rating (beggarticks; 31 g ai/ha): 0
Plant response rating (beggarticks; 62 g ai/ha): 10
Plant response rating (beggarticks; 125 g ai/ha): 20
Plant response rating (beggarticks; 250 g ai/ha): 50
Plant response rating (kochia [2]; 31 g ai/ha): 90
Plant response rating (kochia [2]; 62 g ai/ha): 100
Plant response rating (kochia [2]; 125 g ai/ha): 100
Plant response rating (kochia [2]; 250 g ai/ha): 100

CCOc1nc(-c2ccccc2)nn1Cc1ccnc(C(F)(F)F)c1 [Compound 27]
Plant response rating (panicum, fall; 16 g ai/ha): 65
Plant response rating (panicum, fall; 31 g ai/ha): 100
Plant response rating (panicum, fall; 62 g ai/ha): 100
Plant response rating (panicum, fall; 125 g ai/ha): 100
Plant response rating, Kochia (kochia [1]; 125 g ai/ha): 100
Plant response rating, Kochia (kochia [1]; 500 g ai/ha, approx. 10 d): 100
Plant response rating: Ryegrass, Ital. (ryegrass, Ital.; 16 g ai/ha): 15
Plant response rating: Ryegrass, Ital. (ryegrass, Ital.; 31 g ai/ha): 20
Plant response rating: Ryegrass, Ital. (ryegrass, Ital.; 62 g ai/ha): 35
Plant response rating: Ryegrass, Ital. (ryegrass, Ital.; 125 g ai/ha): 60
Plant response rating (ragweed; 16 g ai/ha): 50
Plant response rating (ragweed; 31 g ai/ha): 50
Plant response rating (ragweed; 62 g ai/ha): 50
Plant response rating (ragweed; 125 g ai/ha): 60
Plant response rating (beggarticks; 16 g ai/ha): 0
Plant response rating (beggarticks; 31 g ai/ha): 0
Plant response rating (beggarticks; 62 g ai/ha): 0
Plant response rating (beggarticks; 125 g ai/ha): 0
Plant response rating (kochia [2]; 16 g ai/ha): 65
Plant response rating (kochia [2]; 31 g ai/ha): 90
Plant response rating (kochia [2]; 62 g ai/ha): 100
Plant response rating (kochia [2]; 125 g ai/ha): 100

COc1nc(-c2ccc(Cl)cc2)nn1Cc1ccnc(C(F)(F)F)c1 [Compound 28]
Plant response rating, Kochia (kochia [1]; 125 g ai/ha): 70
Plant response rating, Kochia (kochia [1]; 500 g ai/ha, approx. 10 d): 90
Plant response rating: Ryegrass, Ital. (ryegrass, Ital.; 16 g ai/ha): 20
Plant response rating: Ryegrass, Ital. (ryegrass, Ital.; 31 g ai/ha): 20
Plant response rating: Ryegrass, Ital. (ryegrass, Ital.; 62 g ai/ha): 30
Plant response rating: Ryegrass, Ital. (ryegrass, Ital.; 125 g ai/ha): 45
Plant response rating (ragweed; 31 g ai/ha): 40
Plant response rating (ragweed; 62 g ai/ha): 40
Plant response rating (ragweed; 125 g ai/ha): 40
Plant response rating (ragweed; 250 g ai/ha): 50

CCOc1nc(-c2ccc(F)cc2)nn1Cc1ccnc(C(F)(F)F)c1 [Compound 8, 4-[[5-ethoxy-3-(4-fluorophenyl)-1H-1,2,4-triazol-1-yl]methyl]-2-(trifluoromethyl)pyridine]
Plant response rating (panicum, fall; 62 g ai/ha): 100
Plant response rating (panicum, fall; 125 g ai/ha): 100
pest or weed control at 125 g/ha (morningglory; 125 g ai/ha): 100%
pest or weed control at 500 g/ha (morningglory; 500 g ai/ha, approx. 10 d): 100%
Plant response rating: Ryegrass, Ital. (ryegrass, Ital.; 31 g ai/ha): 35
Plant response rating: Ryegrass, Ital. (ryegrass, Ital.; 62 g ai/ha): 35
Plant response rating: Ryegrass, Ital. (ryegrass, Ital.; 125 g ai/ha): 55
Plant response rating: Ryegrass, Ital. (ryegrass, Ital.; 250 g ai/ha): 55
Plant response rating (beggarticks; 62 g ai/ha): 20
Plant response rating (beggarticks; 125 g ai/ha): 20
Plant response rating (kochia [2]; 62 g ai/ha): 100
Plant response rating (kochia [2]; 125 g ai/ha): 100
